According to US8147808B2, “Consumer noticeable improvement in wetness protection using solid antiperspirant compositions” (The Procter & Gamble Company, priority 2005, dated 2012):

experiment: Odor detection threshold (ODT) determined using a gas chromatograph; conditions: odor detection threshold of HIA perfume ingredient
Description: HIA perfume ingredients are characterized by their respective boiling point (B.P.), octanol/water partition coefficient (P) and odor detection threshold (“ODT”). The “octanol/water partition coefficient (P)” of a perfume ingredient is the ratio between its equilibrium concentrations in octanol and in water. The boiling points of many perfume ingredients, at standard pressure (760 mm Hg) are given in, e.g., “Perfume and Flavor Chemicals (Aroma Chemicals),” Steffen Arctander, published by the author.
Odor detection thresholds are determined using a gas chromotograph as disclosed in co-pending application, Browne, et al., filed Jun. 9, 2004.

Compound	ODT
CCC=CCCC=CC=O [2-6-nonadienal]	≦50 ppb
CC(C)=CCCC(C)CCCC(C)C=O (stereo not drawn) [Adoxal]	≧50 ppb
C=CCOC(=O)CCCCCC [Allyl Heptanoate]	≧50 ppb
CC/C=C\CCO [Beta Gamma Hexenol]	≧50 ppb
CC/C=C\CCOC(C)=O [Cis 3 Hexenyl Acetate]	≧50 ppb
C/C=C\C(=O)C1C(C)=CCCC1(C)C (stereo not drawn) [Damarose Alpha]	≦50 ppb
CCCCCCCCCC=O [Decyl Aldehyde]	≦50 ppb
CCCCCCC(C=O)=Cc1ccccc1 [Hexyl Cinnamic Aldehyde]	≧50 ppb
CC(=O)/C=C/C1=C(C)CCCC1(C)C [Ionone Beta]	≦50 ppb
CCCCCCCCC/C=C/C=O [Mandarin Aldehyde]	≦50 ppb
CC(C)=CCCC(C)C=O (stereo not drawn) [Melonal]	≦50 ppb
CCCCCCCCCC(C)C=O (stereo not drawn) [Methyl Nonyl Acetaldehyde]	≦50 ppb
CC1=CCC(C(C)CC2CCCC2=O)CC1 (stereo not drawn) [Nectaryl]	≧50 ppb
C=CCCC(=O)C1=CCCC(C)(C)C1 [Neobutenone]	≦50 ppb
CC(=O)CCc1ccc(O)cc1 [Para Hydroxy Phenyl Butanone]	≦50 ppb
CC1(C)C2CC=C(CCC=O)C1C2 (stereo not drawn) [Pino Acetaldehyde]	≦50 ppb
CCC/C=C/C=O [Trans-2 Hexenal]	≦50 ppb
CCCCCCCC1CCC(=O)O1 (stereo not drawn) [Undecalactone]	≧50 ppb
CC(=O)OC1CCCCC1C(C)(C)C (stereo not drawn) [Verdox]	≧50 ppb
C=C(C)[C@H]1CC=C(C)CC1 [d-limonene]	≧50 ppb
CCOC(=O)C(C)CC (stereo not drawn) [ethyl-2-methyl butyrate]	≦50 ppb
CCCCCCC=CC(=O)OC [methyl-2-nonenoate]	≦50 ppb
Citralva Plus	≦50 ppb
Natural Sinensal	≦50 ppb
